Measurements from PMC12090182, “Repurposing of the RIPK1-Selective Benzo[1,4]oxazepin-4-one Scaffold for the Development of a Type III LIMK1/2 Inhibitor” (ACS Chemical Biology, 2025).
Read-outs that look alike come from different tables or passages of the source.

Test system: HEK293T cells
Assay type: cell-based
Description: To assess the influence on cell health, a high-content screening in living cells called the multiplex high-content assay, as described previously by Tjaden et al., was performed.[38] In brief, HEK293T (ATCC CRL-1573) and U2OS (ATCCHTB-96) were cultured in DMEM plus L-glutamine (high glucose) supplemented by 10% FBS (Gibco) and penicillin/streptomycin (Gibco). MRC-9 fibroblasts ([…]) were cultured in EMEM plus L-glutamine supplemented by 10% FBS (Gibco) and penicillin/streptomycin (Gibco). Cells were seeded at a density of 1250 cells per well in a 384-well plate in a culture medium (cell culture microplate, PS, f-bottom, μClear, 781091, Greiner), with a volume of 50 μL per well. All outer wells were filled with 100 μL of PBS buffer (Gibco). […] The cell shape and fluorescence were measured before treatment and 12, 24, and 48 h after compound treatment using the CQ1 high-content confocal microscope (Yokogawa, Musashino, Japan). […] The compounds were tested at 1 and 10 μM, respectively. Acquired images of the cells were processed using Yokogawa CellPathfinder software (v3.04.02.02). […] Results were normalized to cells exposed to 0.1% DMSO. All compounds were tested in biological duplicates, and SEM (standard error of mean) was calculated of biological duplicates.

[1] = 1 µM, 0 h after treatment, HEK293T, biological replicate 1
[2] = 1 µM, 0 h after treatment, HEK293T, biological replicate 2
[3] = 1 µM, 12 h after treatment, HEK293T, biological replicate 1
[4] = 1 µM, 12 h after treatment, HEK293T, biological replicate 2
[5] = 1 µM, 24 h after treatment, HEK293T, biological replicate 1
[6] = 1 µM, 24 h after treatment, HEK293T, biological replicate 2
[7] = 1 µM, 48 h after treatment, HEK293T, biological replicate 1
[8] = 1 µM, 48 h after treatment, HEK293T, biological replicate 2
[9] = 10 µM, 0 h after treatment, HEK293T, biological replicate 1
[10] = 10 µM, 0 h after treatment, HEK293T, biological replicate 2
[11] = 10 µM, 12 h after treatment, HEK293T, biological replicate 1
[12] = 10 µM, 12 h after treatment, HEK293T, biological replicate 2
[13] = 10 µM, 24 h after treatment, HEK293T, biological replicate 1
[14] = 10 µM, 24 h after treatment, HEK293T, biological replicate 2
[15] = 10 µM, 48 h after treatment, HEK293T, biological replicate 1
[16] = 10 µM, 48 h after treatment, HEK293T, biological replicate 2

## CN1C(=O)[C@@H](N2CCc3c(C(N)=O)nn(Cc4ccccc4)c3C2=O)COc2ccccc21 [Compound 11]
human, 0 h, 10 µM
  Population with membrane disruption (%): 0.00%
human, 12 h, 10 µM
  Population with membrane disruption (%): 0.00%
human, 24 h, 10 µM
  Population with membrane disruption (%): 0.00%

## CC(C)C(=O)Nc1ncc(C(=O)NCCN(Cc2ccccc2)C(=O)c2ccc(S(=O)(=O)Nc3ccccc3)cc2)s1 [TH470]
[1]
  Cell count normalized to cells treated with DMSO control: 0.821
  Cell count per well: 245
  Population Fragmented Nuclei (%): 8.67%
  Population Healthy Nuclei (%): 36.73%
  Population Pyknosed Nuclei (%): 54.59%
  Population apoptotic cell (%): 45.79%
  Population cell that influence microtubule strucutre (%): 23.61%
  Population with increased mitochondrial mass (%): 62.50%
  Population with membrane disruption (%): 0.00%
[2]
  Cell count normalized to cells treated with DMSO control: 1.084
  Cell count per well: 248
  Population Fragmented Nuclei (%): 6.57%
  Population Healthy Nuclei (%): 60.56%
  Population Pyknosed Nuclei (%): 32.86%
  Population apoptotic cell (%): 65.71%
  Population cell that influence microtubule strucutre (%): 23.26%
  Population with increased mitochondrial mass (%): 77.52%
  Population with membrane disruption (%): 0.00%
[3]
  Cell count normalized to cells treated with DMSO control: 0.762
  Cell count per well: 347
  Population Fragmented Nuclei (%): 6.25%
  Population Healthy Nuclei (%): 79.38%
  Population Pyknosed Nuclei (%): 14.38%
  Population apoptotic cell (%): 34.78%
  Population cell that influence microtubule strucutre (%): 27.17%
  Population with increased mitochondrial mass (%): 44.49%
  Population with membrane disruption (%): 0.79%
[4]
  Cell count normalized to cells treated with DMSO control: 1.119
  Cell count per well: 392
  Population Fragmented Nuclei (%): 8.45%
  Population Healthy Nuclei (%): 80.85%
  Population Pyknosed Nuclei (%): 10.70%
  Population apoptotic cell (%): 44.74%
  Population cell that influence microtubule strucutre (%): 20.91%
  Population with increased mitochondrial mass (%): 53.66%
  Population with membrane disruption (%): 0.70%
[5]
  Cell count normalized to cells treated with DMSO control: 0.7629
  Cell count per well: 463
  Population Fragmented Nuclei (%): 9.77%
  Population Healthy Nuclei (%): 77.91%
  Population Pyknosed Nuclei (%): 12.33%
  Population apoptotic cell (%): 49.06%
  Population cell that influence microtubule strucutre (%): 18.21%
  Population with increased mitochondrial mass (%): 28.66%
  Population with membrane disruption (%): 1.49%
[6]
  Cell count normalized to cells treated with DMSO control: 1.065
  Cell count per well: 481
  Population Fragmented Nuclei (%): 9.19%
  Population Healthy Nuclei (%): 81.84%
  Population Pyknosed Nuclei (%): 8.97%
  Population apoptotic cell (%): 42.50%
  Population cell that influence microtubule strucutre (%): 14.25%
  Population with increased mitochondrial mass (%): 34.25%
  Population with membrane disruption (%): 0.55%
[7]
  Cell count normalized to cells treated with DMSO control: 0.791
  Cell count per well: 800
  Population Fragmented Nuclei (%): 15.22%
  Population Healthy Nuclei (%): 78.13%
  Population Pyknosed Nuclei (%): 6.65%
  Population apoptotic cell (%): 21.15%
  Population cell that influence microtubule strucutre (%): 12.27%
  Population with increased mitochondrial mass (%): 18.82%
  Population with membrane disruption (%): 1.47%
[8]
  Cell count normalized to cells treated with DMSO control: 1.233
  Cell count per well: 842
  Population Fragmented Nuclei (%): 13.32%
  Population Healthy Nuclei (%): 80.63%
  Population Pyknosed Nuclei (%): 6.05%
  Population apoptotic cell (%): 22.00%
  Population cell that influence microtubule strucutre (%): 11.71%
  Population with increased mitochondrial mass (%): 13.96%
  Population with membrane disruption (%): 2.70%
[9]
  Cell count normalized to cells treated with DMSO control: 0.9315
  Cell count per well: 278
  Population Fragmented Nuclei (%): 7.95%
  Population Healthy Nuclei (%): 44.77%
  Population Pyknosed Nuclei (%): 47.28%
  Population apoptotic cell (%): 36.28%
  Population cell that influence microtubule strucutre (%): 15.89%
  Population with increased mitochondrial mass (%): 64.49%
  Population with membrane disruption (%): 0.00%
[10]
  Cell count normalized to cells treated with DMSO control: 0.9485
  Cell count per well: 217
  Population Fragmented Nuclei (%): 6.86%
  Population Healthy Nuclei (%): 61.76%
  Population Pyknosed Nuclei (%): 31.37%
  Population apoptotic cell (%): 54.69%
  Population cell that influence microtubule strucutre (%): 26.19%
  Population with increased mitochondrial mass (%): 83.33%
  Population with membrane disruption (%): 0.00%
[11]
  Cell count normalized to cells treated with DMSO control: 0.7906
  Cell count per well: 360
  Population Fragmented Nuclei (%): 7.79%
  Population Healthy Nuclei (%): 76.01%
  Population Pyknosed Nuclei (%): 16.20%
  Population apoptotic cell (%): 50.00%
  Population cell that influence microtubule strucutre (%): 67.21%
  Population with increased mitochondrial mass (%): 73.77%
  Population with membrane disruption (%): 0.00%
[12]
  Cell count normalized to cells treated with DMSO control: 0.8648
  Cell count per well: 303
  Population Fragmented Nuclei (%): 4.80%
  Population Healthy Nuclei (%): 76.38%
  Population Pyknosed Nuclei (%): 18.82%
  Population apoptotic cell (%): 66.67%
  Population cell that influence microtubule strucutre (%): 63.77%
  Population with increased mitochondrial mass (%): 85.02%
  Population with membrane disruption (%): 0.97%
[13]
  Cell count normalized to cells treated with DMSO control: 0.6459
  Cell count per well: 392
  Population Fragmented Nuclei (%): 10.66%
  Population Healthy Nuclei (%): 68.30%
  Population Pyknosed Nuclei (%): 21.04%
  Population apoptotic cell (%): 42.47%
  Population cell that influence microtubule strucutre (%): 67.93%
  Population with increased mitochondrial mass (%): 75.53%
  Population with membrane disruption (%): 0.00%
[14]
  Cell count normalized to cells treated with DMSO control: 0.6866
  Cell count per well: 310
  Population Fragmented Nuclei (%): 8.92%
  Population Healthy Nuclei (%): 72.12%
  Population Pyknosed Nuclei (%): 18.96%
  Population apoptotic cell (%): 45.10%
  Population cell that influence microtubule strucutre (%): 52.06%
  Population with increased mitochondrial mass (%): 79.38%
  Population with membrane disruption (%): 1.55%
[15]
  Cell count normalized to cells treated with DMSO control: 0.5428
  Cell count per well: 549
  Population Fragmented Nuclei (%): 15.79%
  Population Healthy Nuclei (%): 71.54%
  Population Pyknosed Nuclei (%): 12.67%
  Population apoptotic cell (%): 44.62%
  Population cell that influence microtubule strucutre (%): 57.49%
  Population with increased mitochondrial mass (%): 61.58%
  Population with membrane disruption (%): 2.45%
[16]
  Cell count normalized to cells treated with DMSO control: 0.5405
  Cell count per well: 369
  Population Fragmented Nuclei (%): 12.20%
  Population Healthy Nuclei (%): 75.00%
  Population Pyknosed Nuclei (%): 12.80%
  Population apoptotic cell (%): 55.81%
  Population cell that influence microtubule strucutre (%): 64.68%
  Population with increased mitochondrial mass (%): 73.81%
  Population with membrane disruption (%): 1.19%
